In patent publication US20050014817A1, “Fluorothiophene derivatives, process for preparing them and pharmaceutical compositions containing them” (Pfizer Inc, priority 2003, published 2005):

Key:
[1] = molecular target: MMP-12 (Homo sapiens, UniProt P39900); experiment: In vitro inhibition of MMP-12 proteolysis of fluorigenic peptide FP-1; format: biochemical; conditions: FP-1 substrate 10 μM, 20 minutes at room temperature
Procedure: In Vitro Evaluation of the Inhibitory Activity of the Compounds of the Invention on MMP-12:
(§1) The inhibitory activity of the compounds of formula (I) on metalloprotease-12 is evaluated by testing the capacity of the compounds of the invention to inhibit the proteolysis of a peptide that is an MMP-12 substrate.
The substrate peptide used (fluorigenic peptide-1: FP-1) in the test has the following sequence: Mca-Pro-Leu-Gly-Leu-Dap(Dnp)-Ala-Arg-NH2.
The inhibitory activity of a compound of formula (I) is expressed as the IC50 value, which represents the concentration of inhibitor for which a 50% inhibition of the metalloprotease is observed.
(§2) The reaction starts with the sequential addition of 41 μl of FP-1 substrate (final concentration of 10 μM) to a buffer solution of 50 mM of Tris-HCl and 10 mM of CaCl2, and containing 5 mM of hydroxamic acid and 5 μl of the enzyme diluted in a 0.005% Brij-35 buffer solution. The microplates are incubated for 20 minutes at room temperature.
(§3) The compounds of the invention are tested at concentrations ranging from 0.3 to 30 μM.
(§4) The measurement of the amount of proteolysis of the peptide substrate is monitored by means of a measurement of absorbance at 405 nm using a microplate spectrophotometer, at room temperature. The IC50 values are calculated from curves in which the percentage of the catalytic activity relative to the control is represented on the x-axis and the inhibitor concentration is represented on the y-axis.

[2] = molecular target: MMP-13 (Homo sapiens, UniProt P45452); experiment: MMP-12 test adapted to MMP-13; format: biochemical
Procedure: as §1, §2, §3, §4
The test described above for the inhibition of MMP-12 is adapted and used to determine the capacity of the compounds of formula (I) to inhibit the metalloproteases MMP-1, MMP-2, MMP-3, MMP-7, MMP-9, MMP-13 and MMP-14.

Sequence of MMP-12 (P39900 106-470): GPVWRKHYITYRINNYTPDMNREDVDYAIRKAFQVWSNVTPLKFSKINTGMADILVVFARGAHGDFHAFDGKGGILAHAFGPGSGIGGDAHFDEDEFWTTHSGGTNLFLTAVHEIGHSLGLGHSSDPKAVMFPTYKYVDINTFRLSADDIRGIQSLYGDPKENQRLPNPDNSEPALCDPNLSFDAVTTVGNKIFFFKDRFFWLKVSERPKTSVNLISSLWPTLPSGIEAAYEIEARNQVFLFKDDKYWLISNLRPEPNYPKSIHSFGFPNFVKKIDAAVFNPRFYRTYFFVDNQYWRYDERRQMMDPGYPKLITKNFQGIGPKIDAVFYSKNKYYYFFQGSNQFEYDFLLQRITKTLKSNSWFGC

Row | IC50 [1] [µM] | IC50 [2] [µM] | Structure (SMILES)
1 | 0.14 | 2.8 | O=C(NC[C@H]1CC[C@H](C(=O)O)CC1)c1cc(-c2ccc(OC(F)(F)F)cc2)c(F)s1 [Example 1, 4-({[5-Fluoro-4-(4-trifluoromethoxyphenyl)thien-2-yl]carboxamido}-methyl)cyclohexanecarboxylic Acid]
2 | 0.007 | 0.038 | CC(=O)c1ccc(-c2ccc(-c3cc(C(=O)NC[C@H]4CC[C@H](C(=O)O)CC4)sc3F)cc2)cc1 [Example 2, trans4-({[5-Fluoro-4-(4-[4-acetylphenyl]phenyl)thien-2-yl]carboxamido}methyl)cyclohexanecarboxylic Acid]
3 | 0.024 | 0.085 | CC(=O)c1ccc(-c2ccc(-c3cc(C(=O)N[C@H](CC(=O)O)c4ccccc4)sc3F)cc2)cc1 [Example 3, 3-(R)-Phenyl-3-({5-fluoro-4-[4-(4-acetylphenyl)phenyl]thien-2 yl}carboxamido)-propanoic Acid]
